Target: T1, Prostaglandin D2 receptor (Homo sapiens, UniProt Q13258)
T1 sequence (Q13258 whole entry): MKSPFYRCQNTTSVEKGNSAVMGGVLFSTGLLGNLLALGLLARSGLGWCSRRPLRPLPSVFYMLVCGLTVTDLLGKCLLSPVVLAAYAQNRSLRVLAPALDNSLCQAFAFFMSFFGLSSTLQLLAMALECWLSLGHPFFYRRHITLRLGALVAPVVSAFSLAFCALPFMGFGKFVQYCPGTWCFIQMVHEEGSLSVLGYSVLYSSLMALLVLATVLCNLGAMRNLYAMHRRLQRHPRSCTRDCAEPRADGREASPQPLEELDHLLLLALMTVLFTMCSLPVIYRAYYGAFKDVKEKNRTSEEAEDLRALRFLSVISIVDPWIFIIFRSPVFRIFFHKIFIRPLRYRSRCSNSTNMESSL
Experiment: Antagonist activity at prostaglandin D2 receptor in human LS174T cells assessed as inhibition of PGD2-induced cAMP accumulation after 15 mins by scintillation proximity assay
Type: functional, cell-based

IC50: 4.47 nM
SMILES: COc1ccc(CCNc2cc(-c3ccc(F)c(/C=N/O)c3)nc(OC)n2)cc1

Source: ChEMBL document CHEMBL1641378, “Understanding DP receptor antagonism using a CoMSIA approach” (Bioorg Med Chem Lett, 2011)
